Experimental data reported in patent US20250230193A1, “CYCLIC COMPOUND HAVING SELECTIVE KRAS INHIBITORY EFFECT ON HRAS AND NRAS” (CHUGAI SEIYAKU KABUSHIKI KAISHA, priority 2022, published 2025).
Where a SMILES comes first, the peptide text is derived from it. Bridges are numbered along the chain shown (N, C = ends). [ ]: non-standard residue; d: D form. hPhe(3-Cl-4-CF3) = N[C@@H](CCc1ccc(C(F)(F)F)c(Cl)c1)C(=O)O; NPrPhe(4-CF3) = CCCN[C@@H](Cc1ccc(C(F)(F)F)cc1)C(=O)O; NMeGly(cPent) = CN[C@H](C(=O)O)C1CCCC1; NMeD = CN[C@@H](CC(=O)O)C(=O)O; NMeL = CN[C@@H](CC(C)C)C(=O)O; Ac5c = NC1(C(=O)O)CCCC1; Aze = O=C(O)[C@@H]1CCN1; Sar = CNCC(=O)O

What was measured:
[1] = target: GDP-bound NRAS wild-type protein (Homo sapiens, UniProt P01111); assay: Binding to NRAS by surface plasmon resonance (SPR), Single Cycle Kinetics
Sequence of GDP-bound NRAS wild-type protein (P01111 whole entry): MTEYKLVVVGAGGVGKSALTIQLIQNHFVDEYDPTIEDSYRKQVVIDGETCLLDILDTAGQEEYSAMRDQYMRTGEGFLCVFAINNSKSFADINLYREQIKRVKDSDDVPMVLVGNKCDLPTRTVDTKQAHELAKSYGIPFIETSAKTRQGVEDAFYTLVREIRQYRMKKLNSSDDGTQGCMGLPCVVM

[2] = target: GDP-bound HRAS wild-type protein (Homo sapiens, UniProt P01112); assay: Binding to HRAS by surface plasmon resonance (SPR), Single Cycle Kinetics
Sequence of GDP-bound HRAS wild-type protein (P01112 whole entry): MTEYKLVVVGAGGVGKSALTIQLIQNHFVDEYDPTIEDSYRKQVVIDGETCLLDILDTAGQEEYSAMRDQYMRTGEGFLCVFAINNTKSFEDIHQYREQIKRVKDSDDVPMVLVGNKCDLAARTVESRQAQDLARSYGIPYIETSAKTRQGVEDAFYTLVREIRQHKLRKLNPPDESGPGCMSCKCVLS

[3] = KD ratio, GDP-bound NRAS wild-type vs GDP-bound KRAS wild-type, SPR
[4] = KD ratio, GDP-bound HRAS wild-type vs GDP-bound KRAS wild-type, SPR

## CCO[C@@H]1C[C@H]2C(=O)NC3(CCC3)C(=O)N(C)[C@@H](C3CCCC3)C(=O)N(C)[C@H](C(=O)N(C)CCOC)CC(=O)N(C)[C@@H](CC(C)C)C(=O)N[C@@H]([C@@H](C)CC)C(=O)N(C)CC(=O)N(C)[C@H]3C/C=C\CCN(C3=O)[C@@H](Cc3ccc(C(F)(F)F)cc3)C(=O)N(C)CC(=O)N[C@@H](CCc3cc(F)c(C(F)(F)F)c(F)c3)C(=O)N2C1 [PP1317]
[1]; SPR, KD ratio class
  NRAS/KRAS (ratio of KD value for GDP-bound NRAS wild-type protein to KD value for KRAS): A (a compound having 10 or more and less than 20 is denoted as A)
[2]; SPR, KD ratio class
  HRAS/KRAS (ratio of KD value for GDP-bound HRAS wild-type protein to KD value for KRAS): B (a compound having 3 or more and less than 10 is denoted as B)

## CC[C@H](C)[C@@H]1NC(=O)[C@H](C)N(C)C(=O)C[C@@H](C(=O)N2CCOCC2)N(C)C(=O)[C@H](C2CCCC2)N(C)C(=O)C2(CCC2)NC(=O)[C@@H]2CC(F)(F)CN2C(=O)[C@H](CCc2cc(F)c(C(F)(F)F)c(F)c2)NC(=O)CN(C)C(=O)[C@H](Cc2ccc(C(F)(F)F)cc2)N2CCCC[C@@H](C2=O)N(C)C(=O)CN(C)C1=O [PP0582]
[1]; SPR
  NRAS/KRAS (ratio of KD value with respect to GDP-bound NRAS wild-type protein to KD value with respect to KRAS): C (A compound having a KD ratio of 0.1 or more and less than 3 is denoted as C)
[2]; SPR
  HRAS/KRAS (ratio of KD value with respect to GDP-bound HRAS wild-type protein to KD value with respect to KRAS): B (a compound having 3 or more and less than 10 is denoted as B)

## CCO[C@@H]1C[C@H]2C(=O)NC3(CCC3)C(=O)N(C)[C@@H](C3CCCC3)C(=O)N(C)[C@H](C(=O)N3CCOCC3)CC(=O)N(C)[C@@H](CC(F)F)C(=O)N[C@@H]([C@@H](C)CC)C(=O)N(C)CC(=O)N(C)[C@H]3CCCCCN(C3=O)[C@@H](Cc3ccc(C(F)(F)F)cc3)C(=O)N(C)CC(=O)N[C@@H](CCc3cc(F)c(C(F)(F)F)c(F)c3)C(=O)N2C1 [PP0854]
[1]; [3]
  NRAS/KRAS (ratio of KD value with respect to NRAS to KD value with respect to KRAS): B (a compound having 3 or more and less than 10 is denoted as B)
[2]; [4]
  HRAS/KRAS (ratio of KD value with respect to HRAS to KD value with respect to KRAS): B (a compound having 3 or more and less than 10 is denoted as B)

## CCO[C@@H]1C[C@H]2C(=O)NC3(CCC3)C(=O)N(C)[C@@H](C3CCCC3)C(=O)N(C)[C@H](C(=O)N(C)C)CC(=O)N(C)[C@@H](CC3CCCC3)C(=O)N[C@@H]([C@@H](C)CC)C(=O)N(C)CC(=O)N(C)[C@H]3C/C=C\CCN(C3=O)[C@@H](Cc3ccc(C)cc3)C(=O)N(C)CC(=O)N[C@@H](CCc3cc(Cl)c(C(F)(F)F)c(Cl)c3)C(=O)N2C1 [PP2679]
[1]; class symbols
  NRAS/KRAS (ratio of KD value with respect to GDP-bound NRAS wild-type protein to KD value with respect to KRAS): A (a compound having 10 or more and less than 20 is denoted as A)
[2]; class symbols
  HRAS/KRAS (ratio of KD value with respect to GDP-bound HRAS wild-type protein to KD value with respect to KRAS): A (a compound having 10 or more and less than 20 is denoted as A)

## CCC[C@H]1C(=O)N[C@@H]([C@@H](C)CC)C(=O)N(C)CC(=O)N(C)[C@H]2C/C=C\CCN(C2=O)[C@@H](Cc2ccc(C)cc2)C(=O)N(C)CC(=O)N[C@@H](CCc2ccc(C(F)(F)F)c(OC)c2)C(=O)N2C[C@H](C)C[C@H]2C(=O)NC2(CC(C)(C)C2)C(=O)N(C)[C@@H](C2CCCC2)C(=O)N(C)[C@H](C(=O)N(C)CC)CC(=O)N1C [PP1891]
[1]; [3]
  NRAS/KRAS (ratio of KD value for NRAS to KD value for KRAS): A (a compound having 10 or more and less than 20 is denoted as A)
[2]; [4]
  HRAS/KRAS (ratio of KD value for HRAS to KD value for KRAS): A (a compound having 10 or more and less than 20 is denoted as A)

## CCCN1C(=O)[C@@H]2CCN2C(=O)CN(C)C(=O)[C@H]([C@@H](C)CC)NC(=O)[C@H](CC(C)C)N(C)C(=O)C[C@@H](C(=O)N(C)C)N(C)C(=O)[C@H](C2CCCC2)N(C)C(=O)C2(CCCC2)NC(=O)[C@@H]2CCCN2C(=O)[C@H](CCc2ccc(C(F)(F)F)c(Cl)c2)NC(=O)CN(C)C(=O)[C@@H]1Cc1ccc(C(F)(F)F)cc1 [PP0440] ([NMeL]I[Sar][Aze][NPrPhe(4-CF3)][Sar][hPhe(3-Cl-4-CF3)]P[Ac5c][NMeGly(cPent)][NMeD]-NMe2; lactam N-11)
[1]; SPR
  NRAS/KRAS (ratio of KD value with respect to GDP-bound NRAS wild-type protein to KD value with respect to KRAS): C (A compound having a KD ratio of 0.1 or more and less than 3 is denoted as C)
[2]; SPR
  HRAS/KRAS (ratio of KD value with respect to GDP-bound HRAS wild-type protein to KD value with respect to KRAS): B (a compound having 3 or more and less than 10 is denoted as B)

## CCCN(C)C(=O)[C@@H]1CC(=O)N(C)[C@@H](CC(F)F)C(=O)N[C@@H]([C@@H](C)CC)C(=O)N(C)CC(=O)N(C)[C@H]2C/C=C\CCN(C2=O)[C@@H](Cc2ccc(C(F)(F)F)cc2)C(=O)N(C)CC(=O)N[C@@H](CCc2cc(F)c(Cl)c(F)c2)C(=O)N2C[C@H](OCC)C[C@H]2C(=O)NC2(CC(C)(C)C2)C(=O)N(C)[C@@H](C2CCCC2)C(=O)N1C [PP1757]
[1]; [3]
  NRAS/KRAS (ratio of KD value for NRAS to KD value for KRAS): AA (a compound having 20 or more is denoted as AA)
[2]; [4]
  HRAS/KRAS (ratio of KD value for HRAS to KD value for KRAS): A (a compound having 10 or more and less than 20 is denoted as A)
